# Assay results taken from patent US20260048062A1, “FUSED AMINO PYRIMIDINE COMPOUNDS FOR TREATMENT OF PSYCHOSIS AND PSYCHOTIC DISORDERS” (Ovid Therapeutics Inc., priority 2024, published 2026).
# Assays:
# [1] = target: T1, KCC4 (Homo sapiens, UniProt Q9Y666); assay: Tl+ flux assay, HEK-293 cells expressing KCC4; assay type: cell-based; settings: read-out: concentration at which effects on KCC4 were seen
# T1 construct: expressed in transfected cells; host or cells: HEK-293
# T1 sequence (Q9Y666 1-1083): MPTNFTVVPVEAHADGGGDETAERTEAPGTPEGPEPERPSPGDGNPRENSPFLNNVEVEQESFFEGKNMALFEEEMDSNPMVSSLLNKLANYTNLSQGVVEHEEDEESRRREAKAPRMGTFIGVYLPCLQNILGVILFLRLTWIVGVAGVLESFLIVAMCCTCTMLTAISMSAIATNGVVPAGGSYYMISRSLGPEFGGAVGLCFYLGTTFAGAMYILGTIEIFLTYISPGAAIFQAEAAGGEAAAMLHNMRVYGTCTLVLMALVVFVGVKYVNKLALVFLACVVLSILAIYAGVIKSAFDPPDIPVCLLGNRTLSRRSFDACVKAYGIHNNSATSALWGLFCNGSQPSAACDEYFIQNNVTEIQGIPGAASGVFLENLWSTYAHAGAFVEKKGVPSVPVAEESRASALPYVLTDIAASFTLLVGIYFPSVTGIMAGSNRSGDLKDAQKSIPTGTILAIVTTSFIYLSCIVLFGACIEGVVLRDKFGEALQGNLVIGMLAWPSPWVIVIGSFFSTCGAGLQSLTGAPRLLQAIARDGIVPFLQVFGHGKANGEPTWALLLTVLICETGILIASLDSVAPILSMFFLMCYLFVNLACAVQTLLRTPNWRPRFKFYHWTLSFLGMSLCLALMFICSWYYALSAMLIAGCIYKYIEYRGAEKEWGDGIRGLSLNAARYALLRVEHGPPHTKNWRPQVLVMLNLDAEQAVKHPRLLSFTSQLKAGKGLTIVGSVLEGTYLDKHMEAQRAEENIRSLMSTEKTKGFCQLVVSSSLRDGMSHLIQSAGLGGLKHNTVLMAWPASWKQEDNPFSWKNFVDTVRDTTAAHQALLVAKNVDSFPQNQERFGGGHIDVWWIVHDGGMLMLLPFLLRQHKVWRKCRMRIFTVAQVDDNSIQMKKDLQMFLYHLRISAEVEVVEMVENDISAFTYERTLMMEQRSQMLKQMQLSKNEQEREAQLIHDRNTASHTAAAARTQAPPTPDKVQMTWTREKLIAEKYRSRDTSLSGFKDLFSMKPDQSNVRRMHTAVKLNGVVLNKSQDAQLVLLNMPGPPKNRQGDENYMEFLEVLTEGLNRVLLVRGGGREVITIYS
# Description: FLIPR TI Flux assay. HEK-293 cells were washed with HBSS, and then incubated with loading buffer containing TI sensitive fluorescent dye (https://www.moleculardevices.com), 20 μM bumetanide 20 μM ouabain and 2.5 mM probenecid for 1 h at room temperature (RT) under control conditions or with drugs in the dark using a FlexStation 3 microplate reader (Molecular Devices) and imaged […] for 30 min. Stimulus buffer was added containing 5 mM K^+/0.5 mM Tl^+ and cells were imaged every 1.5 over a 190 second time course The initial rate Tl^+ uptake (Relative Fluorescence Units (RFU) per second) was determined following addition of the stimulus buffer as outlined previously (Conway et al., 2017, supra) (Lee et al., 2022, supra).
# Compared to KCC2, effects on KCC3, KCC4, and NKCC1 were only seen at concentrations more than 35-fold that of KCC2 (>100 μM) (FIG. 1G).
# [2] = target: T2, KCC2 (Homo sapiens, UniProt Q9H2X9); assay: Biotinylation, plasma membrane level of KCC2 in HEK-293 cells; assay type: cell-based; settings: 15 min
# T2 construct: expressed in transfected cells; host or cells: HEK-293 (ATCC CRL-1573), transient transfection
# T2 sequence (Q9H2X9 1-1116 isoform Q9H2X9-2): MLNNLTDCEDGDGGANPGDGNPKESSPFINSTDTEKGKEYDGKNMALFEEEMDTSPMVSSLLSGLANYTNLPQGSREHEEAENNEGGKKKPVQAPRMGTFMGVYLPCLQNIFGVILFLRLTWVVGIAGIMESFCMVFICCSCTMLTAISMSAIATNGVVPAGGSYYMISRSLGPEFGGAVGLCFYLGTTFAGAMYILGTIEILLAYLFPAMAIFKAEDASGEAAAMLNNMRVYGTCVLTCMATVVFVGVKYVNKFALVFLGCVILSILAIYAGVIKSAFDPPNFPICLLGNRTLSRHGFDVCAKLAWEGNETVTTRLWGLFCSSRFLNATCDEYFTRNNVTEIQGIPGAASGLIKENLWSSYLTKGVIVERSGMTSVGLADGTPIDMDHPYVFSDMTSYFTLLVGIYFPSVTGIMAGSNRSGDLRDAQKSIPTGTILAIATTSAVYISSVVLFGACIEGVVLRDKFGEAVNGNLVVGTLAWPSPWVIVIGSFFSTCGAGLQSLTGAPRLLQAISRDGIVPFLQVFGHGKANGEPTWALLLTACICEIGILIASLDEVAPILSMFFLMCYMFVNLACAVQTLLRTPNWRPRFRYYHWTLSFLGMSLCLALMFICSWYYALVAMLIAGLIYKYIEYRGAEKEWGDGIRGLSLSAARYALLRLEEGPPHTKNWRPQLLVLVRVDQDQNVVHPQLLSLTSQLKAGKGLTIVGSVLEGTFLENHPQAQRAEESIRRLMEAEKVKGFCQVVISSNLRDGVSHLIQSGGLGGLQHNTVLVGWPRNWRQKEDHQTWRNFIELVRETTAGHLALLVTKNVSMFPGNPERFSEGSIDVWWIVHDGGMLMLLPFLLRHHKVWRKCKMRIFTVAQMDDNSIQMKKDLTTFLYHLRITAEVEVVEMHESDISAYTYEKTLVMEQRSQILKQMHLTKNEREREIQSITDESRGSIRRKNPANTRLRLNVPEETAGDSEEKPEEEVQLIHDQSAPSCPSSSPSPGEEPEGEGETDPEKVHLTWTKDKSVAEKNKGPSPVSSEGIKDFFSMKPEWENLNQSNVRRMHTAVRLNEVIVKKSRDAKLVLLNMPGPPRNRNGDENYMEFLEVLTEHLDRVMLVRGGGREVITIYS
# Description: Cell Culture and biotinylation. HEK-293 cells were purchased from ATCC (CRL-1573) and transfected with human KCC2 and GFP expression plasmids using Lipofectamine 2000. Cells were utilized for experimentation 48-72 h following transfection. Cells were biotinylated at 4° C. using NHS-Biotin. Following lysis and purification on immobilized avidin beads, cell surface and total fractions were subject to immunoblotting as outlined previously (Conway et al., 2017, supra).
# The reliability of the biotinylation procedure was assessed via immunoblotting with antibodies against the cytosolic protein actin. Actin was present in the total lysates but was absent from the surface fractions (FIG. 2C).
compound,measurement,setting,value
"C[C@@H]1CN(c2nc3c(c(Nc4ccc(C5CCCCC5)cc4)n2)COC3)CCO1 [Compound A, (R)—N-(4-cyclohexylphenyl)-2-(2-methylmorpholino)-5,7-dihydrofuro[3,4-d]pyrimidin-4-amine]",EC50,[1],> 100 µM
same,level of KCC2 on the plasma membrane (surface/total),[2]; 0.3 μM,94.5±8.4 % of control
same,level of KCC2 on the plasma membrane (surface/total),[2]; 3 μM,104.7±8.4 % of control
